11 molecules from EP3925956B1, “1H-INDAZOLE-3-CARBOXAMIDE DERIVATIVES AND RELATED COMPOUNDS AS FACTOR D INHIBITORS FOR TREATING DISEASES CHARACTERIZED BY ABERRANT COMPLEMENT SYSTEM ACTIVITY, SUCH AS E.G. IMMUNOLOGICAL DISORDERS” (BioCryst Pharmaceuticals, Inc., priority 2016, dated 2017) can be followed below.

The target in the assay is Factor D (Homo sapiens, UniProt P00746). Kind of assay: Factor D esterolytic assay.
Sequence of Factor D (P00746 26-253): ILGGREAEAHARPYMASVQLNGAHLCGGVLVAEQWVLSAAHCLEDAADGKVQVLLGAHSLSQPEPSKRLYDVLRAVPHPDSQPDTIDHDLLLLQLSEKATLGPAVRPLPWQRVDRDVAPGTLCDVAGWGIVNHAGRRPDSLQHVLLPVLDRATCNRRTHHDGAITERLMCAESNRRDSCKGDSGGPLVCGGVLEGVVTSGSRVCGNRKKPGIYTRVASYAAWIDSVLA
One may read the IC50 as the point on the concentration scale where inhibition reaches its midpoint. `CC(=O)c1cn(CC(=O)N(CC(=O)NCc2cccc(Cl)c2F)C(C)C)c2ccc(C#Cc3cccnc3)cc12` [131a, 2-(3-acetyl-5-(pyridin-3-ylethynyl)-1H-indol-1-yl)-N-(2-((3-chloro-2-fluorobenzyl)amino)-2-oxoethyl)-N-isopropylacetamide] returned an IC50 below 1 µM.
`Nc1ncnc2c1ccn2CC(=O)N(CC(=O)NCc1cccc(Cl)c1F)C1CC1` [63a, 2-(4-amino-7H-pyrrolo[2,3-d]pyrimidin-7-yl)-N-(2-((3-chloro-2-fluorobenzyl)amino)-2-oxoethyl)-N-cyclopropylacetamide] had an IC50 of 1 to 10 µM.
The value for `CC(C)N(CC(=O)NCc1cccc(Cl)c1F)C(=O)Cn1cc(C(N)=O)c2c(N)ncnc21` [65a, 4-amino-7-(2-((2-((3-chloro-2-fluorobenzyl)amino)-2-oxoethyl)(isopropyl)amino)-2-oxoethyl)-7H-pyrrolo[2,3-d]pyrimidine-5-carboxamide] was 1 to 10 µM.
Turning to `CC(C)N(CC(=O)NCc1cccc(Cl)c1F)C(=O)Cn1cc(C#N)c2c(N)ncnc21` [60a, 2-(4-amino-5-cyano-7H-pyrrolo[2,3-d]pyrimidin-7-yl)-N-(2-((3-chloro-2-fluorobenzyl)amino)-2-oxoethyl)-N-isopropylacetamide], the IC50 was 1 to 10 µM.
`Nc1ncnc2c1ccn2CC(=O)N(CC(=O)Nc1cccc(Br)n1)C1CC1` [56d, 2-(4-amino-7H-pyrrolo[2,3-d]pyrimidin-7-yl)-N-(2-((6-bromopyridin-2-yl)amino)-2-oxoethyl)-N-cyclopropylacetamide] came in with an IC50 of 1 to 10 µM.
The value for `CC(O)c1nn(CC(=O)N(CC(=O)NCc2cccc(Cl)c2F)C2CC2)c2ccc(NC(=O)N3CCCC(F)(F)C3)cc12` (centres unmarked) [289a, N-(1-(2-((2-((3-chloro-2-fluorobenzyl)amino)-2-oxoethyl)(cyclopropyl)amino)-2-oxoethyl)-3-(1-hydroxyethyl)-1H-indazol-5-yl)-3,3-difluoropiperidine-1-carboxamide] was 1 to 10 µM; that for `CC(=O)c1cn(CC(=O)N(CC(=O)NCc2cccc(Cl)c2F)[C@H]2C[C@H](O)C2)c2ccc(Nc3cncnc3)cc12` [114a, 2-(3-acetyl-5-(pyrimidin-5-ylamino)-1H-indol-1-yl)-N-(2-((3-chloro-2-fluorobenzyl)amino)-2-oxoethyl)-N-((trans)-3-hydroxycyclobutyl)acetamide] was below 1 µM.
The value for `NC(=O)c1ncnc2c1ccn2CC(=O)N(CC(=O)Nc1cncc(Br)n1)C1CC1` [84a, 7-(2-((2-((6-bromopyrazin-2-yl)amino)-2-oxoethyl)(cyclopropyl)amino)-2-oxoethyl)-7H-pyrrolo[2,3-d]pyrimidine-4-carboxamide] was above 10 µM.
`NC(=O)c1nn(CC(=O)N(CC(=O)NCc2cccc(Cl)c2F)[C@H]2C[C@H](N)C2)c2ccc([N+](=O)[O-])cc12` [347b, 1-(2-(((trans)-3-aminocyclobutyl)(2-((3-chloro-2-fluorobenzyl)amino)-2-oxoethyl)amino)-2-oxoethyl)-5-nitro-1H-indazole-3-carboxamide]: the IC50 was below 1 µM.
The value for `CO[C@H]1C[C@H](N(CC(=O)NCc2cccc(Cl)c2F)C(=O)Cn2nc(C(N)=O)c3ccccc32)C1` [170b, 1-(2-((2-((3-chloro-2-fluorobenzyl)amino)-2-oxoethyl)((trans)-3-methoxycyclobutyl)amino)-2-oxoethyl)-1H-indazole-3-carboxamide] was below 1 µM; that for `NC(=O)c1nn(CC(=O)N(CC(=O)NCc2cccc(Cl)c2F)C[C@H]2C[C@H](O)C2)c2ccccc12` [172b, 1-(2-((2-((3-chloro-2-fluorobenzyl)amino)-2-oxoethyl)(((trans)-3-hydroxycyclobutyl)methyl)amino)-2-oxoethyl)-1H-indazole-3-carboxamide] was below 1 µM.
